The compounds below were run on Pfeiffer cells, lymphoma cells having EZH2 mutation (A677G) (assay: Proliferation inhibition of cells of hematologic malignancies (CCK-8, 11 days)). Details: 11 days culture, read-out: Cell proliferation inhibitory effect (IC50).
Format: cell-based
Method: The growth inhibitory activity of 1,3-benzodioxole derivative compounds represented by chemical formula I of the present invention against Pfeiffer cells, which are lymphoma cells having EZH2 mutation (A677G), was evaluated.
Pfeiffer was cultured using RPMI1640 containing 10% fetal bovine serum. The cells were inoculated into wells of a 96-well culture dish at 10,000 cells each, and cultured for 11 days after treating with the test material for each concentration. For 11 days, the test material was replaced every three to four days. After culturing, the cells were treated with a cell counting kit-8 (CCK-8) reagent for each well, absorbance was measured at 450 nm, and IC50 values for cell proliferation were obtained through curve fitting of non-linear regression in the GraphPad program (GraphPad Prism 5.0 software).

Row | IC50 [nM] | Structure (SMILES)
1 | ≤ 10 | CCN1CCC(C2(C)Oc3c(-c4cnc(N(C)CC)nc4)cc(C(=O)NCc4c(SC)cc(C)[nH]c4=O)c(C)c3O2)CC1 (single isomer, unassigned) [Compound 83, 7-(2-(ethyl(methyl)amino)pyrimidin-5-yl)-2-(1-ethylpiperidin-4-yl)-2,4-dimethyl-N-((6-methyl-4-(methylthio)-2-oxo-1,2-dihydropyridin-3-yl)methyl)benzo[d][1,3]dioxole-5-carboxamide]
2 | ≥ 100 | CCN1CCC(C2(C)Oc3c(-c4cnc(N(C)CC)nc4)cc(C(=O)NCc4c(SC)cc(C)[nH]c4=O)c(C)c3O2)CC1 (single isomer, unassigned) [Compound 84, 7-(2-(ethyl(methyl)amino)pyrimidin-5-yl)-2-(1-ethylpiperidin-4-yl)-2,4-dimethyl-N-((6-methyl-4-(methylthio)-2-oxo-1,2-dihydropyridin-3-yl)methyl)benzo[d][1,3]dioxole-5-carboxamide]
3 | ≤ 10 | CSc1cc(C)[nH]c(=O)c1CNC(=O)c1cc(-c2ccc(N3C[C@@H](C)O[C@@H](C)C3)nc2)c2c(c1C)OC(C)([C@H]1CC[C@H](N(C)CC(F)(F)F)CC1)O2 (single isomer, unassigned) [Compound 107]
4 | ≥ 100 | CSc1cc(C)[nH]c(=O)c1CNC(=O)c1cc(-c2ccc(N3C[C@@H](C)O[C@@H](C)C3)nc2)c2c(c1C)OC(C)([C@H]1CC[C@H](N(C)CC(F)(F)F)CC1)O2 (single isomer, unassigned) [Compound 108]

Same assay, conditions: Homo sapiens, Pfeiffer, 264 h, 11 days culture, read-out: Cell proliferation inhibitory effect (IC50)

Row | IC50 [nM] | Structure (SMILES)
5 | ≤ 10 | CCN(C)c1ccc(-c2cc(C(=O)NCc3c(SC)cc(C)[nH]c3=O)c(C)c3c2OC(C)(C2CCN(CC(F)(F)F)CC2)O3)cn1 (single isomer, unassigned) [Compound 86, 7-(6-(ethyl(methyl)amino)pyridin-3-yl)-2,4-dimethyl-N-((6-methyl-4-(methylthio)-2-oxo-1,2-dihydropyridin-3-yl)methyl)-2-(1-(2,2,2-trifluoroethyl)piperidin-4-yl)benzo[d][1,3]dioxole-5-carboxamide]
6 | ≤ 10 | CCN(C)c1ccc(-c2cc(C(=O)NCc3c(SC)cc(C)[nH]c3=O)c(C)c3c2OC(C)(C2CCN(CC(F)F)CC2)O3)cn1 (single isomer, unassigned) [Compound 88, 2-(1-(2,2-difluoroethyl)piperidin-4-yl)-7-(6-(ethyl(methyl)amino)pyridin-3-yl)-2,4-dimethyl-N-((6-methyl-4-(methylthio)-2-oxo-1,2-dihydropyridin-3-yl)methyl)benzo[d][1,3]dioxole-5-carboxamide]
7 | ≤ 10 | CCN1CCC(C2(C)Oc3c(-c4ccc(N(C)CC)nc4)cc(C(=O)NCc4c(SC)cc(C)[nH]c4=O)c(C)c3O2)CC1 (single isomer, unassigned) [Compound 89, 7-(6-(ethyl(methyl)amino)pyridin-3-yl)-2-(1-ethylpiperidin-4-yl)-2,4-dimethyl-N-((6-methyl-4-(methylthio)-2-oxo-1,2-dihydropyridin-3-yl)methyl)benzo[d][1,3]dioxole-5-carboxamide]
8 | ≤ 10 | CSc1cc(C)[nH]c(=O)c1CNC(=O)c1cc(-c2ccc(N3C[C@@H](C)O[C@@H](C)C3)nc2)c2c(c1C)OC(C)([C@H]1CC[C@H](N(C)C)CC1)O2 (stereo partly drawn) [Compound 1, 2-(trans-4-(dimethylamino)cyclohexyl)-7-(6-((2S,6R)-2,6-dimethylmorpholino)pyridin-3-yl)-2,4-dimethyl-N-((6-methyl-4-(methylthio)-2-oxo-1,2-dihydropyridin-3-yl)methyl)benzo[d][1,3]dioxole-5-carboxamide]
9 | ≤ 10 | CSc1cc(C)[nH]c(=O)c1CNC(=O)c1cc(-c2cnc(N3C[C@@H](C)O[C@@H](C)C3)nc2)c2c(c1C)OC(C)([C@H]1CC[C@H](N(C)C)CC1)O2 (stereo partly drawn) [Compound 2, 2-(trans-4-(dimethylamino)cyclohexyl)-7-(2-((2S,6R)-2,6-dimethylaminomorpholino)pyrimidin-5-yl)-2,4-dimethyl-N-((6-methyl-4-(methylthio)-2-oxo-1,2-dihydropyridin-3-yl)methyl)benzo[d][1,3]dioxole-5-carboxamide]
10 | ≤ 10 | CSc1cc(C)[nH]c(=O)c1CNC(=O)c1cc(-c2ccc(N3CCC(F)(F)CC3)nc2)c2c(c1C)OC(C)([C@H]1CC[C@H](N(C)C)CC1)O2 (stereo partly drawn) [Compound 3, 7-(6-(4,4-difluoropiperidin-1-yl)pyridin-3-yl)-2-(trans-4-(dimethylamino)cyclohexyl)-2,4-dimethyl-N-((6-methyl-4-(methylthio)-2-oxo-1,2-dihydropyridin-3-yl)methyl)benzo[d][1,3]dioxole-5-carboxamide]
11 | ≤ 10 | CSc1cc(C)[nH]c(=O)c1CNC(=O)c1cc(-c2cnc(N3CCCCC3)nc2)c2c(c1C)OC(C)([C@H]1CC[C@H](N(C)C)CC1)O2 (stereo partly drawn) [Compound 4, 2-(trans-4-(dimethylamino)cyclohexyl)-2,4-dimethyl-N-((6-methyl-4-(methylthio)-2-oxo-1,2-dihydropyridin-3-yl)methyl)-7-(2-(piperidin-1-yl)pyrimidin-5-yl)benzo[d][1,3]dioxole-5-carboxamide]
12 | ≤ 10 | CSc1cc(C)[nH]c(=O)c1CNC(=O)c1cc(-c2cnc(N3CCCC3)nc2)c2c(c1C)OC(C)([C@H]1CC[C@H](N(C)C)CC1)O2 (stereo partly drawn) [Compound 5, 2-(trans-4-(dimethylamino)cyclohexyl)-2,4-dimethyl-N-((6-methyl-4-(methylthio)-2-oxo-1,2-dihydropyridin-3-yl)methyl)-7-(2-(pyrrolidin-1-yl)pyrimidin-5-yl)benzo[d][1,3]dioxole-5-carboxamide]
13 | ≤ 10 | CSc1cc(C)[nH]c(=O)c1CNC(=O)c1cc(-c2ccc(CN3CCOCC3)cc2)c2c(c1C)OC(C)([C@H]1CC[C@H](N(C)C)CC1)O2 (stereo partly drawn) [Compound 6, 2-(trans-4-(dimethylamino)cyclohexyl)-2,4-dimethyl-N-((6-methyl-4-(methylthio)-2-oxo-1,2-dihydropyridin-3-yl)methyl)-7-(4-(morpholinomethyl)phenyl)benzo[d][1,3]dioxole-5-carboxamide]
14 | ≤ 10 | CSc1cc(C)[nH]c(=O)c1CNC(=O)c1cc(-c2ccc3c(ccn3C)c2)c2c(c1C)OC(C)([C@H]1CC[C@H](N(C)C)CC1)O2 (stereo partly drawn) [Compound 7, 2-(trans-4-(dimethylamino)cyclohexyl)-2,4-dimethyl-7-(1-methyl-1H-indol-5-yl)-N-((6-methyl-4-(methylthio)-2-oxo-1,2-dihydropyridin-3-yl)methyl)benzo[d][1,3]dioxole-5-carboxamide]
15 | ≤ 10 | CSc1cc(C)[nH]c(=O)c1CNC(=O)c1cc(-c2cnc(N3CCC(F)(F)CC3)nc2)c2c(c1C)OC(C)([C@H]1CC[C@H](N(C)C)CC1)O2 (stereo partly drawn) [Compound 8, 7-(2-(4,4-difluoropiperidin-1-yl)pyrimidin-5-yl)-2-(trans-4-(dimethylamino)cyclohexyl)-2,4-dimethyl-N-((6-methyl-4-(methylthio)-2-oxo-1,2-dihydropyridin-3-yl)methyl)benzo[d][1,3]dioxole-5-carboxamide]
16 | ≤ 10 | CSc1cc(C)[nH]c(=O)c1CNC(=O)c1cc(-c2ccc(N3CCOCC3)cc2)c2c(c1C)OC(C)([C@H]1CC[C@H](N(C)C)CC1)O2 (stereo partly drawn) [Compound 9, 2-(trans-4-(dimethylamino)cyclohexyl)-2,4-dimethyl-N-((6-methyl-4-(methylthio)-2-oxo-1,2-dihydropyridin-3-yl)methyl)-7-(4-morpholinophenyl)benzo[d][1,3]dioxole-5-carboxamide]
17 | ≤ 10 | CSc1cc(C)[nH]c(=O)c1CNC(=O)c1cc(-c2ccc(F)cc2)c2c(c1C)OC(C)([C@H]1CC[C@H](N(C)C)CC1)O2 (stereo partly drawn) [Compound 10, 2-(trans-4-(dimethylamino)cyclohexyl)-7-(4-fluorophenyl)-2,4-dimethyl-N-((6-methyl-4-(methylthio)-2-oxo-1,2-dihydropyridin-3-yl)methyl)benzo[d][1,3]dioxole-5-carboxamide]
18 | ≤ 10 | CSc1cc(C)[nH]c(=O)c1CNC(=O)c1cc(-c2ccsc2)c2c(c1C)OC(C)([C@H]1CC[C@H](N(C)C)CC1)O2 (stereo partly drawn) [Compound 11, 2-(trans-4-(dimethylamino)cyclohexyl)-2,4-dimethyl-N-((6-methyl-4-(methylthio)-2-oxo-1,2-dihydropyridin-3-yl)methyl)-7-(thiophene-3-yl)benzo[d][1,3]dioxole-5-carboxamide]
19 | 10 to 100 | COc1ccc(F)cc1-c1cc(C(=O)NCc2c(SC)cc(C)[nH]c2=O)c(C)c2c1OC(C)([C@H]1CC[C@H](N(C)C)CC1)O2 (stereo partly drawn) [Compound 12, 2-(trans-4-(dimethylamino)cyclohexyl)-7-(5-fluoro-2-methoxyphenyl)-2,4-dimethyl-N-((6-methyl-4-(methylthio)-2-oxo-1,2-dihydropyridin-3-yl)methyl)benzo[d][1,3]dioxole-5-carboxamide]
20 | ≤ 10 | CSc1cc(C)[nH]c(=O)c1CNC(=O)c1cc(-c2c(C)noc2C)c2c(c1C)OC(C)([C@H]1CC[C@H](N(C)C)CC1)O2 (stereo partly drawn) [Compound 13, 2-(trans-4-(dimethylamino)cyclohexyl)-7-(3,5-dimethylisoxazol-4-yl)-2,4-dimethyl-N-((6-methyl-4-(methylthio)-2-oxo-1,2-dihydropyridin-3-yl)methyl)benzo[d][1,3]dioxole-5-carboxamide]
21 | ≤ 10 | CSc1cc(C)[nH]c(=O)c1CNC(=O)c1cc(-c2ccc(F)nc2F)c2c(c1C)OC(C)([C@H]1CC[C@H](N(C)C)CC1)O2 (stereo partly drawn) [Compound 14, 7-(2,6-difluoropyridin-3-yl)-2-(trans-4-(dimethylamino)cyclohexyl)-2,4-dimethyl-N-((6-methyl-4-(methylthio)-2-oxo-1,2-dihydropyridin-3-yl)methyl)benzo[d][1,3]dioxole-5-carboxamide]

Source: patent US20250059180A1 (DONG WHA PHARM. CO., LTD., priority 2022, published 2025)
